Test system: dendritic cells derived from splenocytes
Test: Surface markers of splenocyte-derived dendritic cells by flow cytometry
Format: cell-based, C57 mouse
Conditions: incubation 72 hours; p144 50 μg/ml or anti (TGF-β) antibody 20 μg/ml; medium with GM-CSF+TGF-β1
Experimental: After sacrificing an 8-week old male C57 mouse, its spleen was extracted in sterile conditions and it was homogenised on a plate with clean medium to produce a cell suspension. The cells were centrifuged for 5 minutes at 1000 rpm and the cell sediment obtained was resuspended with 1 ml/spleen of ACK lysis solution (0.15M NH4Cl, 1 mM KHCO3, […] sodium salt-EDTA solution, pH 7.2-7.4) for 1 minute at 37° C. Next, the cells were centrifuged and washed with 10 ml of cold R10 medium (RPMI-1640, 10% FBS, Glutamine, 2×10^−5 M 2-Mercaptoethanol) to centrifuge and wash once more. Finally, the cells were resuspended in 50 ml of R10 medium. 6-well plates were prepared (Costar #3471) treating them with 1 ml per well of R10 medium to differentiate splenocytes from dendritic cells [R10+10 ng/ml of mouse GM-CSF (Peprotec, EC LTD, London, UK)+1 ng/ml of TGF-β1 (RD Systems, Minneapolis, USA)], for 15 minutes at room temperature. Next, 2 ml of the cell suspension were added to each well and they were incubated at 37° C. and 5% CO2. During the first weeks, the medium was changed twice, by the elimination of 1 ml of supernatant and the addition of 1 ml of fresh medium (R10+GM-CSF+TGF-β1) for dendritic cells. After these two weeks, the medium was separated. 1 ml per well of dissociation medium in enzyme-free BPS (GIBCO BRL) was added to the plates, and the medium was incubated at 37° C., then it was removed and 2 ml of tepid medium (R10+GM-CSF+TGF-β1) was added. Next, the cells were lifted with slow pipetting and the lifted cells were centrifuged at 1000 rpm and they were resuspended in fresh medium (R10+GM-CSF+TGF-β1). The cells thus obtained can be reamplified by seeding on a plate, repeating the initial process. […]

p144: peptide inhibiting TGF-β1 whose amino acid sequence corresponds to SEQ ID NO: 1 (TSLDASIIWAMMQN; Synthetic Construct from human TGB-Beta1 type III receptor.Domain730-743)
negative effect: CD11c expression (fluorescence level) | CD80 expression (fluorescence level) | MHC I expression (fluorescence level)
